# From patent US10336697B2, “Spiro[cyclobutane-1,3′-indolin]-2′-one derivatives as bromodomain inhibitors” (Orion Corporation, priority 2015, dated 2019)
# Molecular target: Bet BRD4 full length bromo-domain protein (Homo sapiens, UniProt O60885)
# Experiment: Bet bromodomain TR-FRET assay (displacement of acetyl histone peptide)
# Format: binding
# Conditions: Bet BRD4 full length bromodomain protein, 300 nM acetyl histone peptide substrate, read-out: IC50
row,IC50 [nM],SMILES
1,< 600,"CN1CCC(NC(=O)c2cc(NS(=O)(=O)c3cc(F)ccc3F)cc3c2NC(=O)C32CCC2)CC1 [Compound 86, 5′-(2,5-Difluorophenylsulfonamido)-N-(1-methylpiperidin-4-yl)-2′-oxospiro[cyclobutane-1,3′-indoline]-7′-carboxamide]"
2,< 600,"COc1ccccc1S(=O)(=O)Nc1cc(Cc2ccccc2F)c2c(c1)C1(CCC1)C(=O)N2 [Compound 9, N-(7′-(2-fluorobenzyl)-2′-oxospiro[cyclobutane-1,3′-indolin]-5′-yl)-2-methoxybenzenesulfonamide]"
3,> 1000,"O=C(Nc1cc(NS(=O)(=O)c2ccc(F)cc2F)cc2c1NC(=O)C21CCC1)C1CCOCC1 [Compound 46, N-(5′-(2,4-Difluorophenylsulfonamido)-2′-oxospiro[cyclobutane-1,3′-indolin]-7′-yl)tetrahydro-2H-pyran-4-carboxamide]"
4,< 600,"O=C1Nc2c(NCc3cnc[nH]3)cc(NS(=O)(=O)c3ccc(F)cc3F)cc2C12CCC2 [Compound 25, N-(7′-(((1H-imidazol-5-yl)methyl)amino)-2′-oxospiro [cyclo butane-1,3′-indolin]-5′-yl)-2,4-difluorobenzene sulfonamide]"
5,< 600,"O=C1Nc2c(OC3CCCNC3)cc(NS(=O)(=O)c3ccc(Cl)cc3F)cc2C12CCC2 (stereo not drawn) [compound 200, 4-Chloro-2-fluoro-N-(2′-oxo-7′-(piperidin-3-yloxy)spiro[cyclobutane-1,3′-indolin]-5′-yl)benzenesulfonamide]"
6,> 1000,"COc1ccccc1S(C)(=O)=Nc1cc(N)c2c(c1)C1(CCC1)C(=O)N2 (stereo not drawn) [Compound-182, 7′-Amino-5′-(((2-methoxyphenyl)(methyl)(oxo)-l6-sulfanylidene)amino)spiro[cyclobutane-1,3′-indolin]-2′-one]"
7,< 600,"COc1ccccc1S(=O)(=O)Nc1cc(OC2CCCN(C)CC2)c2c(c1)C1(CCC1)C(=O)N2 (stereo not drawn) [Compound 140, 2-Methoxy-N-(7′-((1-methylazepan-4-yl)oxy)-2′-oxospiro[cyclobutane-1,3′-indolin]-5′-yl)benzenesulfonamide]"
8,< 600,"CS(=O)(=O)N1CCC(Oc2cc(NS(=O)(=O)c3ccc(Cl)cc3F)cc3c2NC(=O)C32CCC2)CC1 [Compound-210, 4-Chloro-2-fluoro-N-(7′-((1-(methylsulfonyl)piperidin-4-yl)-oxy)-2′-oxospiro[cyclobutane-1,3′-indolin]-5′-yl)benzenesulfonamide]"
9,< 600,"COc1ccc(S(=O)(=O)Nc2cc(C3CCNCC3)c3c(c2)C2(CCC2)C(=O)N3)c(OC)c1 [Compound 92, 2,4-Dimethoxy-N-(2′-oxo-7′-(piperidin-4-yl)spiro[cyclobutane-1,3′-indolin]-5′-yl)benzenesulfonamide]"
10,600 to 1000,"CN1CCC(NC(=O)c2cc(NS(=O)(=O)C3CCCCC3)cc3c2NC(=O)C32CCC2)CC1 [Compound 83, 5′-(Cyclohexanesulfonamido)-N-(1-methylpiperidin-4-yl)-2′-oxospiro[cyclobutane-1,3′-indoline]-7′-carboxamide]"
11,< 600,"CN1CCC(CCc2cc(NS(=O)(=O)c3ccc(F)cc3F)cc3c2NC(=O)C32CCC2)CC1 [Compound 116, 2,4-Difluoro-N-(7′-(2-(1-methylpiperidin-4-yl)ethyl)-2′-oxospiro-[cyclobutane-1,3′-indolin]-5′-yl)benzenesulfonamide]"
12,> 1000,"COc1cccc(OC)c1S(=O)(=O)Nc1cc(OC2CCN(C)CC2)c2c(c1)C1(CCC1)C(=O)N2 [compound 186, 2,6-Dimethoxy-N-(7′-((1-methylpiperidin-4-yl)oxy)-2′-oxospiro[cyclobutane-1,3′-indolin]-5′-yl)benzenesulfonamide]"
13,< 600,"COc1ccc(S(=O)(=O)Nc2cc(C3CCN(C)CC3)c3c(c2)C2(CCC2)C(=O)N3)c(F)c1 [Compound 98, 2-Fluoro-4-methoxy-N-(7′-(1-methylpiperidin-4-yl)-2′-oxospiro-[cyclobutane-1,3′-indolin]-5′-yl)benzenesulfonamide]"
14,< 600,"CCN1CCC(Nc2cc(NS(=O)(=O)c3ccc(F)cc3F)cc3c2NC(=O)C32CCC2)CC1 [Compound 24, N-(7′-((1-ethylpiperidin-4-yl)amino)-2′-oxospiro[cyclobutane-1,3′-indolin]-5′-yl)-2,4-difluorobenzenesulfonamide]"
15,< 600,"CN1CCCC(NC(=O)c2cc(NS(=O)(=O)c3ccc(F)cc3F)cc3c2NC(=O)C32CCC2)C1 (stereo not drawn) [Compound 58, 5′-(2,4-Difluorophenylsulfonamido)-N-(1-methylpiperidin-3-yl)-2′-oxospiro[cyclobutane-1,3′-indoline]-7′-carboxamide]"
16,< 600,"COc1ccccc1S(=O)(=O)Nc1cc(OCCN2CCOCC2)c2c(c1)C1(CCC1)C(=O)N2 [Compound 168, 2-Methoxy-N-(7′-(2-morpholinoethoxy)-2′-oxospiro[cyclobutane-1,3′-indolin]-5′-yl)benzenesulfonamide]"
17,< 600,"CN1CCC(c2cc(NS(=O)(=O)c3ccc(F)cc3F)cc3c2NC(=O)C32CCC2)CC1 [Compound 89, 2,4-Difluoro-N-(7′-(1-methylpiperidin-4-yl)-2′-oxospiro[cyclobutane-1,3′-indolin]-5′-yl)benzenesulfonamide]"

row,IC50 [nM],SMILES
1,< 600,"Cn1cnc2ccc(-c3cc(NS(=O)(=O)c4ccc(F)cc4F)cc4c3NC(=O)C43CCC3)cc21 [Compound 5, 2,4-Difluoro-N-(7′-(1-methyl-1H-benzo[d]imidazol-6-yl)-2′-oxospiro[cyclobutane-1,3′-indolin]-5′-yl)benzene sulphonamide]"
2,600 to 1000,"COc1cc(-c2cc(NS(=O)(=O)c3ccc(F)cc3F)cc3c2NC(=O)C32CCC2)ccn1 [Compound 2, 2,4-Difluoro-N-(7′-(2-methoxypyridin-4-yl)-2′-oxospiro [cyclobutane-1,3′-indolin]-5′-yl)benzenesulfonamide]"
3,< 600,"CNCCOc1cc(NS(=O)(=O)c2ccccc2OC)cc2c1NC(=O)C21CCC1 [compound 204, 2-Methoxy-N-(7′-(2-(methylamino)ethoxy)-2′-oxospiro[cyclobutane-1,3′-indolin]-5′-yl)benzenesulfonamide]"
4,< 600,"CCN(CC)CCOc1cc(NS(=O)(=O)c2ccccc2OC)cc2c1NC(=O)C21CCC1 [Compound 165, N-(7′-(2-(diethylamino)ethoxy)-2′-oxospiro[cyclobutane-1,3′-indolin]-5′-yl)-2-methoxybenzenesulfonamide]"
5,< 600,"O=C1Nc2c(OC3CCOCC3)cc(NS(=O)(=O)c3ccc(Cl)cc3F)cc2C12CCC2 [Compound 142, 4-Chloro-2-fluoro-N-(2′-oxo-7′-((tetrahydro-2H-pyran-4-yl)oxy)spiro[cyclobutane-1,3′-indolin]-5′-yl)benzenesulfonamide]"
6,< 600,"CN1CCC(NC(=O)c2cc(NS(=O)(=O)c3ccc(F)cc3F)cc3c2NC(=O)C32CCC2)C1 (stereo not drawn) [Compound 52, 5′-(2,4-Difluorophenylsulfonamido)-N-(1-methylpyrrolidin-3-yl)-2′-oxospiro[cyclobutane-1,3′-indoline]-7′-carboxamide]"
7,< 600,"COc1ccccc1S(=O)(=O)Nc1cc(C(F)c2ccccc2)c2c(c1)C1(CCC1)C(=O)N2 (stereo not drawn) [Compound 125, N-(7′-(fluoro(phenyl)methyl)-2′-oxospiro[cyclobutane-1,3′-indolin]-5′-yl)-2-methoxybenzenesulfonamide]"
8,< 600,"O=C1CCC(Nc2cc(NS(=O)(=O)c3ccc(F)cc3F)cc3c2NC(=O)C32CCC2)CN1 (stereo not drawn) [Compound 33, 2,4-Difluoro-N-(2′-oxo-7′-((6-oxopiperidin-3-yl)amino)spiro[cyclobutane-1,3′-indolin]-5′-yl)benzenesulfonamide]"
9,< 600,"C=C(c1ccccc1)c1cc(NS(=O)(=O)c2ccccc2OC)cc2c1NC(=O)C21CCC1 [Compound 11, 2-Methoxy-N-(2′-oxo-7′-(1-phenylvinyl)spiro[cyclobutane-1,3′-indolin]-5′-yl)benzenesulfonamide]"
10,600 to 1000,"O=C(NC1CCCCC1)c1cc(NS(=O)(=O)c2ccc(F)cc2F)cc2c1NC(=O)C21CCC1 [Compound 55, N-cyclohexyl-5′-(2,4-difluorophenylsulfonamido)-2′-oxospiro[cyclobutane-1,3′-indoline]-7′-carboxamide]"
11,< 600,"CCN1CCC(NC(=O)c2cc(NS(=O)(=O)c3ccc(F)cc3F)cc3c2NC(=O)C32CCC2)CC1 [Compound 54, 5′-(2,4-Difluorophenylsulfonamido)-N-(1-ethylpiperidin-4-yl)-2′-oxospiro[cyclobutane-1,3′-indoline]-7′-carboxamide]"
12,> 1000,"CN1CCC(NC(=O)c2cc(NC(=O)c3ccc(F)cc3F)cc3c2NC(=O)C32CCC2)CC1 [Compound 75, 5′-(2,4-Difluorobenzamido)-N-(1-methylpiperidin-4-yl)-2′-oxospiro[cyclobutane-1,3′-indoline]-7′-carboxamide]"
13,< 600,"COc1ccccc1S(=O)(=O)Nc1cc(OCCN(C)C)c2c(c1)C1(CCC1)C(=O)N2 [Compound 162, N-(7′-(2-(dimethylamino)ethoxy)-2′-oxospiro[cyclobutane-1,3′-indolin]-5′-yl)-2-methoxybenzenesulfonamide]"
14,< 600,"O=C1Nc2c(-c3ccc4c(c3)CNCC4)cc(NS(=O)(=O)c3ccc(F)cc3F)cc2C12CCC2 [Compound 88, 2,4-Difluoro-N-(2′-oxo-7′-(1,2,3,4-tetrahydroisoquinolin-7-yl)spiro-[cyclobutane-1,3′-indolin]-5′-yl)benzenesulfonamide]"
15,< 600,"O=C1Nc2c(Oc3cc[nH]c(=O)c3)cc(NS(=O)(=O)c3ccc(Cl)cc3F)cc2C12CCC2 [Compound-212, 4-Chloro-2-fluoro-N-(2′-oxo-7′-((2-oxo-1,2-dihydropyridin-4-yl)oxy)spiro[cyclobutane-1,3′-indolin]-5′-yl)benzenesulfonamide]"
16,< 600,"COc1ccccc1S(=O)(=O)Nc1cc(Oc2cc[nH]c(=O)c2)c2c(c1)C1(CCC1)C(=O)N2 [compound 213, 2-Methoxy-N-(2′-oxo-7′-((2-oxo-1,2-dihydropyridin-4-yl)oxy)spiro[cyclobutane-1,3′-indolin]-5′-yl)benzenesulfonamide]"
